The test has as its target T1, human NK-2 receptor (Homo sapiens, UniProt P21452).
T1 construct: expressed in transfected cells; host or cells: Chinese hamster ovary (CHO) cells, membranes
T1 sequence (P21452 1-398): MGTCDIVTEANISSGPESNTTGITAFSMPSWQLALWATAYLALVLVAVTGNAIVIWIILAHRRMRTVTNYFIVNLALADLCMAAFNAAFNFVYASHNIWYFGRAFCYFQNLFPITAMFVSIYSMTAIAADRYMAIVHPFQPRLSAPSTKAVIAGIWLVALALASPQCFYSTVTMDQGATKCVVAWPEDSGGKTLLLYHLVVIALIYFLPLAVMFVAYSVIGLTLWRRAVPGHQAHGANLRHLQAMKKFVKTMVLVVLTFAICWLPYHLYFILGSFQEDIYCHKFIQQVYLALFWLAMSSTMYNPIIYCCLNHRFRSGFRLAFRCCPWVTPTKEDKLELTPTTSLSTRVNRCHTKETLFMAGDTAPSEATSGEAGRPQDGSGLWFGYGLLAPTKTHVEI
Nature of the test: Binding test on membranes of CHO cells transfected with the human ileum NK-2 receptor, radioligand NKA in competition. To be noted: CHO cell membranes, radioligand NKA 100 pM, incubation 30 min., 20° C.; for Ki: read-out: pKi (affinity to the human NK-2 receptor) (converted). As for the experimental part:
Assessment of the antagonist activity on NK-2 receptors was performed with binding and functional tests according to prior descriptions in the literature for NK-2 antagonists.
In particular, affinity of the compounds for the human NK-2 receptor was assessed in a binding test using membranes of Chinese hamster ovary (CHO) cells, transfected with the NK-2 receptor of human ileum and the radioligand ['251]NKA (Amersham, aspecific activity 2000 Ci/mmol) at a concentration of 100 pM in competition studies. The substances under examination were tested in a concentration range from 0.01 nM to 10 mM. At the end of incubation (30 min., 20° C.) the samples were filtered and the radioactivity was determined using a gamma-counter.
The data in table 1 were obtained for some compounds of general formula (I) and concern the values of affinity to the human NK-2 receptor: […]

On to `Cc1ccc2cc(C(=O)NC3(C(=O)N[C@@H](CCC(=O)N4CCN(C5CCOCC5)CC4)Cc4ccccc4)CCCC3)sc2c1` [Example 52, (S) 6-Methyl-benzo[b]thiophene-2-carboxylic acid (1-{1-benzyl-4-oxo-4-[4-(tetrahydro-pyran-4-yl)-piperazin-1-yl]-butylcarbamoyl}-cyclopentyl)amide], for which the Ki was 0.0794 nM.

“(S) 6-Methyl-benzo[b]thiophene-2-carboxylic acid (1-{1-benzyl-4-[4-(2-hydroxy-ethyl)-piperidin-1-yl]-4-oxo-butylcarbamoyl)-cyclopentyl)-amide [Example 53]”: the “pKi (affinity to the human NK-2 receptor)” value is recorded as 8.7.

On to `Cc1ccc2cc(C(=O)NC3(C(=O)N[C@@H](COCCC4CCN(CC5CCOCC5)CC4)Cc4ccccc4)CCCC3)sc2c1` [Example 62], for which the Ki is 0.501 nM.

Take `Cc1ccc2cc(C(=O)NC3(C(=O)N[C@@H](CCC(=O)N4CCN(CC5CCOCC5)CC4)Cc4ccccc4)CCCC3)sc2c1` [Example 51]: the Ki is 0.0794 nM.

For `O=C(NC1(C(=O)N[C@@H](CCCN2CCC(Cc3ccccc3)CC2)Cc2ccccc2)CCCC1)c1cc2ccccc2s1` [Example 50, (S) Benzo[b]thiophene-2-carboxylic acid {1-[1-benzyl-4-(4-benzyl-piperidin-1-yl)-butylcarbamoyl]-cyclopentyl}-amide], the Ki is 0.126 nM.

As to `Cc1ccc2cc(C(=O)NC3(C(=O)N[C@@H](CCCN4CCN(CC5CCOCC5)CC4)Cc4ccccc4)CCCC3)sc2c1` [Example 54, (S) 6-Methyl-benzo[b]thiophene-2-carboxylic acid (1-{1-benzyl-4-[4-(tetrahydro-pyran-4-ylmethyl)-piperazin-1-yl]-butylcarbamoyl}-cyclopentyl)-amide], the Ki is 0.0501 nM.

On to `Cc1ccc2cc(C(=O)NC3(C(=O)N[C@@H](CCCN4CCN(C(=O)C5CCOCC5)CC4)Cc4ccccc4)CCCC3)sc2c1` [Example 55, (S) 6-Methyl-benzo[b]thiophene-2-carboxylic acid (1-{1-benzyl-4-[4-(tetrahydro-pyran-4-carbonyl)-piperazin-1-yl]-butylcarbamoyl}-cyclopentyl)-amide], for which the Ki is 0.1 nM.

`Cc1ccc2cc(C(=O)NC3(C(=O)N[C@@H](CCCC4CCN(CC5CCOCC5)CC4)Cc4ccccc4)CCCC3)sc2c1` [Example 58, (S) 6-Methyl-benzo[b]thiophene-2-carboxylic acid (1-{1-benzyl-4-[1-(tetrahydro-pyran-4-ylmethyl)-piperidin-4-yl]-butylcarbamoyl}-cyclopentyl)-amide]: the Ki was 0.126 nM.

As to `CN(C)CCCNC(=O)C=C[C@@H](Cc1ccccc1)NC(=O)C1(NC(=O)c2cc3ccccc3s2)CCCC1` [Example 46, (R) Benzo[b]thiophene-2-carboxylic acid {1-[1-benzyl-3-(3-dimethylamino-propylcarbamoyl)-allylcarbamoyl]-cyclopentyl)-amide], the Ki was 0.631 nM.

For the origin of these results see patent publication US20060223814A1, “Nk-2 antagonist basic linear compounds and formulations containing them” (priority 2003, published 2006).
